This note sets out measurements from patent US11845984B2, “Methods for obtaining and correcting biological sequence information” (CYGNUS BIOSCIENCES (BEIJING) CO., LTD., priority 2015, dated 2023).

A short description of this data set: Spectral (optical) properties of fluorophores. It counts as physicochemical. As to the method:
Although Me-FAM has similar maximum emission wavelength as TG, the extinction coefficient and quantum yield of Me-FAM are much lower (FIG. 8). At the same time, the broad emission spectrum of Me-FAM greatly overlapped with other fluorophores like Me-HCF, which makes it inapplicable for multi-color sequencing application in future. Instead, the strong fluorescence and narrower spectrum of TG will tackle the problem more easily.
First, the spectrums of TG-dA4P were measured at room temperature. For emission measurement: set excitation wavelength at 460 nm, scan 480 to 600 nm for emission; for absorption measurement: scan 310 to 550 nm. Then CIP and PDE were added and spectrum was recorded sequentially at the same condition.

As to `Cc1ccccc1-c1c2ccc(=O)cc-2oc2cc(O)ccc12` [TG, Tokyo Green], the Emission max came out at 513 nm, the Excitation max amounted to 490 nm, the Extinction coefficient is reported as 8 × 10^4 and the “Quantum Yield” value stood at 82%. Under “at 490 nm”, this compound gave a fluorescence quantum yield of 0.82.
